Reference: patent US7335756B2, “Retinoic acid metabolizing cytochrome P450” (Cytochroma Inc., priority 2001, dated 2008)

Experiments:
[1] = target: T1, P450RAI-3 (Homo sapiens, UniProt Q6V0L0, F447L); assay: [3H]-RA-metabolism inhibition in Sf9-Bac-P450RAI-3 insect microsomes; assay type: biochemical; details: 2 nM [3H]-RA, NADPH, 1 hour, read-out: ID50 (nM) Sf9-P450RAI-3
T1 sequence (Q6V0L0 1-522 F447L): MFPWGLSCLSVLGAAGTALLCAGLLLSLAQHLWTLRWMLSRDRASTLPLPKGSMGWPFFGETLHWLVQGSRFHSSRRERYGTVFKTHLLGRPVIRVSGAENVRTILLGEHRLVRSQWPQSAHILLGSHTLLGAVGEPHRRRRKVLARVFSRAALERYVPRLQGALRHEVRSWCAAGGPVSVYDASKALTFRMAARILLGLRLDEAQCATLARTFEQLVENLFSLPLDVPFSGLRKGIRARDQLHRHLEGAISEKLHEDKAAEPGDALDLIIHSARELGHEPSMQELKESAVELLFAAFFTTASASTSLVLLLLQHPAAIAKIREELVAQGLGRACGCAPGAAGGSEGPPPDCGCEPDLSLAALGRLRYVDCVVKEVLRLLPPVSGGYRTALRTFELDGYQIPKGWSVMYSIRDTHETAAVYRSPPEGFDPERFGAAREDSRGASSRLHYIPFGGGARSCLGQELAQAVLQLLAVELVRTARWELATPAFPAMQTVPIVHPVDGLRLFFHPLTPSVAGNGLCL
Procedure: Microsomes from P450RAI-3 and CYP26B infected Sf-9 cells were made as follows: exponentially growing cells were harvested, washed with ice-cold PBS, counted then homogenized and sonicated in lysis buffer containing protease inhibitors cocktail (10^8 cells par 5 ml lyses buffer). Since P450RAI-3 is a microsomal cytochrome, it preferably uses NADPH cytochromic P450 reductase and a flavoprotein for activity. The microsomes were isolated by differential centrifugations (10 min at 800×g, than 10 min at 10,000×g and finally the postmitichondirial supernatant was centrifuged at 100,000×g for 60 min using ultracentrifuge (Beckman). The microsomal pellet was isolated and homogenized gently in the storage buffer containing protease inhibitors cocktail. Protein concentration in the microsomal preparation was determined using a […] reaction assay kit with BSA as standards (Pierce). The absorbance at 562 nm of standards (BSA at 1, 0.5, 0.25, 0.125, and 0.0625 mg/ml) and 3 dilutions of microsomes samples (⅕, 1/10 and 1/20) was determined using an automatic microplate reader (μQuant, BioTek instruments Inc.). The protein concentration directly calculated by the software (KCJunior). […] Microsomes were assessed for P450 content by carbon monoxide assay and total P450 content was determined at 3 nmol/ml. […]

[2] = target: T1, P450RAI-3; assay: LC/MS analysis of ATRA and 9-cis-RA metabolism in Hela-P450RAI-3 stable cells; details: 5 hours
Procedure: After 5 hours incubation at 37° C., cells were acidified with acetic acid and total retinoids were extracted using Ethyl acetate method. The organic upper layer was pooled and evaporated in speed-vacuum, and dried residues were dissolved in HPLC mobile solvent and analyzed in LC/MS.
The HPLC system consisted of a waters alliance 2690 separations module. Chromatography was obtained on an Eclipse X DB-C18 reverse phase column (5 um, 2.1×150 mm from HP). A gradient elution program was used using acetonitrile, water and 10% acetic acid. The flow was held at 0.2 ml/min.
Mass Spectrometry condition used for this work consisted of a Micro-mass Quatro Ultima Tandem triple quadruple mass spectrometer equipped with electrospray interface (ESI) and operated in a negative mode.

[3] = target: T1, P450RAI-3; assay: [3H]-RA-metabolism inhibition (substrate competition) in P450RAI-3 stable transfected Hela cells; assay type: cell-based; design: expressed in transfected cells; details: 2 nM [3H]-RA, read-out: ID50, competition for P450RAI-3 [3H]-RA metabolism
Procedure: (§1) The purpose of these experiments is to determine the specific substrates for P450RAI-3. […] The RA metabolism reaction was started by the addition of 50 ul of [^3H]-RA solution (20000 cpm, 2 nM final concentration). Cells were incubated for 3 hours in a humidified CO2 incubator at 37 degrees Celsius. The reaction was stopped by the addition of 5 ul of 10% acetic acid. Organic and aqueous soluble radio-labelled metabolites were extracted using the Bligh-Dyer procedure.

[4] = target: T1, P450RAI-3; assay: RA-metabolism cell based assay in P450RAI-3-infected Sf9 cells; design: expressed in transfected cells; details: 2 nM [3H]-RA
Procedure: Recombinant baculovirus expressing either P450RAI-3 or CYP26B (Bac-P450RAI-3 or Bac-CYP26B or CYP26B) was prepared and titrated by end-point dilution and infection of Sf9 cells in 96-well format. Baculovirus expressing vector was co-transfected into Sf9-insect cells. Infected cells were assessed for RA-metabolism after 72 hours post transfection using RA-metabolism cell based assay as follows: the RA-metabolism reaction was started by adding 50 μl of [^3H]-RA solution (20000 cpm, 2 nM final concentration) using an automatic repeating-pipette.
Cells were incubated for 3 hours. The reaction was stopped by adding 5 μl of 10% acetic acid. Organic and aqueous soluble radio-labelled metabolites were extracted using the Bligh-Dyer procedure.

[5] = target: T1, P450RAI-3; assay: [3H]-RA-metabolism inhibition, transient Cos-P450RAI-3 cell-based assay; design: expressed in transfected cells; host or cells: COS-1 (transient, pcDNA-P450RAI-3, Fugene); details: at lower concentrations
Procedure: as §1

[6] = target: T1, P450RAI-3; assay: [3H]-RA-metabolism inhibition in mammalian microsomes from transient P450RAI-3-transfected Cos cells; assay type: biochemical; design: expressed in transfected cells; host or cells: COS-1 (transient, pcDNA-P450RAI-3, Fugene); details: read-out: ID50 (nM) P450RAI-3
Procedure: RA-metabolism activity was assessed using RA-metabolism microsomes-based assay and Bligh Dyer extraction as follows: Using an automatic repeating-pipette, gently thawed and homogenized microsomes were plated in a 48-well plate in final volume of 150 μl of storage buffer containing 0.5 mg/ml BSA. At indicated concentration 2 μl of compound solution was added to the assay and 2 μl of DMSO was added to MS control (quadruplet) and No-MS control. 50 μl of [^3H]-RA solution (30,000 cpm, 2 nM final concentration) was added. The microsomes assay with the compounds and the [^3H]-ATRA were incubated first for 10 min at 37° C., and then the reaction started by adding 20 μl of NADPH solution (or 1 mM final). After 1-hour incubation the reaction was stopped by adding 5 μl of 10% acetic acid. Organic and aqueous soluble radio-labelled metabolites were extracted using the Bligh-Dyer procedure. Saturated activity obtained in presence of NADPH at 5 μg of microsomes, FIG. 14.
Microsomes prepared from either stable Hela-CYP26-B or transient P450RAI-3-transfected Cos cells were used.

SMILES: CC1=C(/C=C/C(C)=C/C=C/C(C)=C/C(=O)O)C(C)(C)CCC1 [ATRA, all-trans-retinoic-acid]
- IC50 [1]: 20 nM
- metabolites formed by P450RAI-3 [2]: hydroxy and oxo-metabolites
- IC50 [3]: 300 nM
- metabolism by P450RAI-3-infected Sf9-cells [4]: metabolized ATRA and converted it to water-soluble metabolites
- competition / inhibition of P450RAI-3 [5]: competed
- IC50 [6]: 20 nM
